In US8106015B2, “Method for enhancing immune response with peptide” (Juridical Foundation The Chemo-Sero-Therapeutic Research …, priority 2007, dated 2012):
Several values for one entry are separate records, joined by “and”; a condition that tells them apart may be missing. Equal values may be shown once.

Assays:
Format in all cases: in vivo, C57BL/6 mice
anti-Aβ IgG antibody [1] = experiment: Example 5: anti-Aβ IgG antibody titer, cysteine at the C-terminal, the N-terminal and both terminals; conditions: Day 7 from the final 4th immunization; for Antibody titer, Mean: group mean of 4 mice; for Antibody titer: individual animals (No. 1-4), 100 μg/mouse, 2-week intervals, no adjuvant
anti-Aβ IgG antibody [2] = experiment: Example 6: anti-Aβ IgG antibody titer, Aβ peptide sequences with insertion of cysteine; conditions: Day 7 from the final 4th immunization; for Antibody titer, Mean: group mean of 4 mice; for Antibody titer: individual animals (No. 1-4), 100 μg/mouse, 2-week intervals, no adjuvant
anti-Aβ IgG antibody [3] = experiment: Example 3: anti-Aβ IgG antibody titer, Aβ peptides with addition of cysteine of 26-40 amino acids in length; conditions: Day 7 from final 3rd immunization; for Antibody titer, Mean: group mean of 4 mice; for Antibody titer: individual animals (No. 1-4), 100 μg/mouse, 3 times at 2-week intervals, no adjuvant
anti-Aβ IgG antibody [4] = experiment: Example 1: anti-Aβ IgG antibody titer in murine serum after immunization with Aβ peptides with and without addition of cysteine
anti-Aβ IgG antibody [5] = experiment: Example 2: anti-Aβ IgG antibody titer, Aβ peptide with cysteine vs carrier-linked Aβ peptide with/without adjuvant; conditions: Day 7 from final 3rd immunization
anti-Aβ IgG antibody [6] = experiment: Example 4: anti-Aβ IgG antibody titer, Aβ peptides with 0, 1 or 2 molecules of cysteine added
anti-Aβ IgG antibody [7] = experiment: Example 7: anti-Aβ IgG antibody titer, Aβ peptide with cysteine plus exogenous amino acid sequence; conditions: Day 7 from the final 4th immunization; for Antibody titer, Mean: group mean of 4 mice; for Antibody titer: individual animals (No. 1-4), 100 μg/mouse, 2-week intervals, no adjuvant
anti-Aβ IgG antibody [8] = experiment: Example 10: anti-Aβ IgG antibody titer, Aβ peptide with/without cysteine, with and without adjuvant; conditions: Day 7 from final 3rd immunization
[9] = group mean of 4 mice, serum, 100 μg/mouse intradermally or subcutaneously, 2-week intervals, no adjuvant

Q: With “CDAEFRHDSGYEVHHQKLVFFAEDVGSNK [Cys28AA, Peptide with addition of 1 molecule of cysteine at the N-terminal]” as the sequence, how does the “Antibody titer, Mean” value (anti-Aβ IgG antibody [1]) read?
A: 5891.8 ng/mL

Q: And the Antibody titer (anti-Aβ IgG antibody [1]; listed as Cys2BAA)?
A: 7708 ng/mL and 423 ng/mL and 15328 ng/mL and 108 ng/mL

Q: For “CDAEFRHDSGYEVHHQKLVFFAEDVGSNKC [Cys28AACys, Peptide with addition of each 1 molecule of cysteine at the C-terminal and the N-terminal]”, which “Antibody titer, Mean” value (anti-Aβ IgG antibody [1]) is on record?
A: 13051.6 ng/mL

Q: What about the Antibody titer (anti-Aβ IgG antibody [1]) of the same sequence?
A: 772 ng/mL and 49849 ng/mL and 1537 ng/mL and 48 ng/mL

Q: Which results are given for “DAEFRHDCSGYEVHHQKLVFFAEDVGSNK [28AA7Cys, 28-amino acid Aβ peptide with insertion of cysteine after residue 7]”?
A: Antibody titer, Mean (anti-Aβ IgG antibody [2]): 23.0 ng/mL; Antibody titer (anti-Aβ IgG antibody [2]): 21 ng/mL and 24 ng/mL and 17 ng/mL and 30 ng/mL

Q: How did the “Antibody titer, Mean” value (anti-Aβ IgG antibody [2]) turn out when “DAEFRHDSGYCEVHHQKLVFFAEDVGSNK [28AA10Cys, 28-amino acid Aβ peptide with insertion of cysteine after residue 10]” was run?
A: 17.7 ng/mL

Q: What about the Antibody titer (anti-Aβ IgG antibody [2]) of the same sequence?
A: 26 ng/mL and 19 ng/mL and 18 ng/mL and 8 ng/mL

Q: What does the source list for “DAEFRHDSGYEVHHQKLVCFFAEDVGSNK [28AA18Cys, 28-amino acid Aβ peptide with insertion of cysteine between 18th-19th amino acid residues]”?
A: Antibody inducing ability (anti-Aβ IgG antibody [2]): antibody inducing ability was found; Antibody inducing ability as compared to the group administered with 28AACys (anti-Aβ IgG antibody [2]): higher antibody inducing ability; Antibody titer, Mean (anti-Aβ IgG antibody [2]): 611899.2 ng/mL; Antibody titer (anti-Aβ IgG antibody [2]): 2163676 ng/mL and 92083 ng/mL and 54037 ng/mL and 137801 ng/mL

Q: With “DAEFRHDSGYEVHHQKLVFFAEDVGCSNK [28AA25Cys, Aβ peptide with insertion of cysteine between the 25th and 26th amino acid residues]” as the sequence, how does the “Antibody inducing ability” value (anti-Aβ IgG antibody [2]) read?
A: antibody inducing ability was found

Q: And the “Antibody titer, Mean” value (anti-Aβ IgG antibody [2])?
A: 6860.8 ng/mL

Q: What about the Antibody titer (anti-Aβ IgG antibody [2]) of the same sequence?
A: 14972 ng/mL and 4721 ng/mL and 4483 ng/mL and 3267 ng/mL

Q: What does the source list for “DAEFRHDSGYEVHHQKLVFFAEDVGSC [26AACys, 26-amino acid Aβ peptide with addition of cysteine at the C-terminal]”?
A: Antibody titer, Mean (anti-Aβ IgG antibody [3]): 24.5 ng/mL; Antibody titer (anti-Aβ IgG antibody [3]): 39 ng/mL and 19 ng/mL (2×) and 21 ng/mL

Q: “DAEFRHDSGYEVHHQKLVFFAEDVGSNC [27AACys, 27-amino acid Aβ peptide with addition of cysteine at the C-terminal]” was tested. Which “Antibody titer, Mean” value (anti-Aβ IgG antibody [3]) did it give?
A: 19.0 ng/mL

Q: What about the Antibody titer (anti-Aβ IgG antibody [3]) of the same sequence?
A: 15 ng/mL and 19 ng/mL (2×) and 24 ng/mL

Q: Which “Increase in the antibody titer with addition of cysteine” value (anti-Aβ IgG antibody [4]; compared to the same Aβ peptide fragment without addition of cysteine) does the source give for “DAEFRHDSGYEVHHQKLVFFAEDVGSNKC [28AACys, 28-amino acid Aβ peptide with addition of cysteine]” here?
A: about 39 fold

Q: What about the “Antibody titer, Day 7 from 2nd administration, Mean” value (anti-Aβ IgG antibody [4]; [9]) of the same sequence?
A: 157767.25 ng/mL

Q: What about the “Antibody titer, Day 7 from 3rd administration, Mean” value (anti-Aβ IgG antibody [4]; [9]) of the same sequence?
A: 26043.00 ng/mL

Q: What about the “Antibody titer, Day 7 from 2nd administration” value (anti-Aβ IgG antibody [4]; individual animals (No. 1-4), serum, 100 μg/mouse intradermally or subcutaneously, 2-week intervals, no adjuvant) of the same sequence?
A: 74096.0 ng/mL and 30542.0 ng/mL and 389239.0 ng/mL and 137192.0 ng/mL

Q: What about the “Antibody titer, Day 7 from 3rd administration” value (anti-Aβ IgG antibody [4]; individual animals (No. 1-4), serum, 100 μg/mouse intradermally or subcutaneously, 3 times at 2-week intervals, no adjuvant) of the same sequence?
A: 20265.0 ng/mL and 2337.0 ng/mL and 69198.0 ng/mL and 12372.0 ng/mL

Q: What about the “Antibody titer, Mean” value (anti-Aβ IgG antibody [5]; group mean of 5 mice) of the same sequence?
A: 4237.48 ng/mL

Q: What about the Antibody titer (anti-Aβ IgG antibody [5]; individual animals (No. 1-5), primary 100 μg, 2nd and 3rd 50 μg per animal, 2-week intervals) of the same sequence?
A: 1714.4 ng/mL and 5949.1 ng/mL and 10122.3 ng/mL and 716.6 ng/mL and 2685.0 ng/mL

Q: And the “Antibody inducing ability against Aβ” value (anti-Aβ IgG antibody [3])?
A: higher antibody titer

Q: And the “Antibody titer, Mean” value (anti-Aβ IgG antibody [3])?
A: 51916.1 ng/mL

Q: What about the Antibody titer (anti-Aβ IgG antibody [3]) of the same sequence?
A: 3120 ng/mL and 2191 ng/mL and 115618 ng/mL and 86736 ng/mL

Q: And the “Antibody inducing ability” value (anti-Aβ IgG antibody [6]; 1 vs 2 molecules of cysteine at the C-terminal)?
A: almost the same antibody inducing ability

Q: What about the “Antibody titer, Mean” value (anti-Aβ IgG antibody [6]; group mean of 4 mice, Day 7 from the final 4th immunization) of the same sequence?
A: 5070.2 ng/mL

Q: What about the Antibody titer (anti-Aβ IgG antibody [6]; individual animals (No. 1-4), Day 7 from the final 4th immunization, 100 μg/mouse, 2-week intervals, no adjuvant) of the same sequence?
A: 211 ng/mL and 365 ng/mL and 19578 ng/mL and 127 ng/mL

Q: What about the “Antibody titer, Mean” value (anti-Aβ IgG antibody [1]) of the same sequence?
A: 155867.0 ng/mL

Q: And the Antibody titer (anti-Aβ IgG antibody [1])?
A: 290461 ng/mL and 94 ng/mL and 139927 ng/mL and 192986 ng/mL

Q: What about the “Antibody inducing ability” value (anti-Aβ IgG antibody [2]) of the same sequence?
A: antibody inducing ability was found

Q: And the “Antibody titer, Mean” value (anti-Aβ IgG antibody [2])?
A: 18946.0 ng/mL

Q: And the Antibody titer (anti-Aβ IgG antibody [2])?
A: 20883 ng/mL and 10503 ng/mL and 38907 ng/mL and 5491 ng/mL

Q: And the “Antibody inducing ability” value (anti-Aβ IgG antibody [7])?
A: antibody inducing ability was found

Q: And the “Antibody titer, Mean” value (anti-Aβ IgG antibody [7])?
A: 5070.2 ng/mL

Q: And the Antibody titer (anti-Aβ IgG antibody [7])?
A: 211 ng/mL and 365 ng/mL and 19578 ng/mL and 127 ng/mL

Q: What about the “Antibody titer, Mean” value (anti-Aβ IgG antibody [8]; group mean of 4 mice) of the same sequence?
A: 19243.7 ng/mL

Q: And the Antibody titer (anti-Aβ IgG antibody [8]; individual animals (No. 1-4), 100 μg Aβ peptide per animal, 3 times at 2-week intervals)?
A: 8847 ng/mL and 9458 ng/mL and 10446 ng/mL and 48224 ng/mL

Q: With “DAEFRHDSGYEVHHQKLVFFAEDVGSNKCEIFEFTTD [Peptide with addition of cysteine at the C-terminal plus an exogenous peptide]” as the sequence, how does the “Antibody inducing ability” value (anti-Aβ IgG antibody [7]) read?
A: antibody inducing ability was found

Q: And the “Antibody titer, Mean” value (anti-Aβ IgG antibody [7])?
A: 21099.2 ng/mL

Q: What about the Antibody titer (anti-Aβ IgG antibody [7]) of the same sequence?
A: 8196 ng/mL and 28782 ng/mL and 2162 ng/mL and 45257 ng/mL

Q: “DAEFRHDSGYEVHHQKLVFFAEDVGSNKCGAIIG [33AA28Cys, Aβ peptide with insertion of cysteine between the 28th and 29th amino acid residues]” was tested. Which “Antibody inducing ability” value (anti-Aβ IgG antibody [2]) did it give?
A: antibody inducing ability was found

Q: What about the “Antibody titer, Mean” value (anti-Aβ IgG antibody [2]) of the same sequence?
A: 4105.0 ng/mL

Q: What about the Antibody titer (anti-Aβ IgG antibody [2]) of the same sequence?
A: 245 ng/mL and 1932 ng/mL and 29 ng/mL and 14214 ng/mL

Q: For “DAEFRHDSGYEVHHQKLVFFAEDVGSNKCGAIIGLM [35AA28Cys, Aβ peptide with insertion of cysteine between the 28th and 29th amino acid residues]”, which “Antibody inducing ability” value (anti-Aβ IgG antibody [2]) is on record?
A: antibody inducing ability was found

Q: What about the “Antibody titer, Mean” value (anti-Aβ IgG antibody [2]) of the same sequence?
A: 6897.5 ng/mL

Q: And the Antibody titer (anti-Aβ IgG antibody [2])?
A: 1753 ng/mL and 17265 ng/mL and 2103 ng/mL and 6469 ng/mL

Q: For “DAEFRHDSGYEVHHQKLVFFAEDVGSNKCTTD [28AACysTTD, Peptide with addition of cysteine at the C-terminal plus an exogenous peptide]”, which “Antibody inducing ability” value (anti-Aβ IgG antibody [7]) is on record?
A: antibody inducing ability was found

Q: And the “Antibody titer, Mean” value (anti-Aβ IgG antibody [7])?
A: 28279.3 ng/mL

Q: What about the Antibody titer (anti-Aβ IgG antibody [7]) of the same sequence?
A: 46 ng/mL and 106899 ng/mL and 4316 ng/mL and 1855 ng/mL
